For data set [1], the system named is acute liver injury (ALI) rats. Briefly: Biochemical indexes of liver and renal functions in CCl4-intoxicated (ALI) rats. It is filed as in vivo, rat. As to the method: Male Sprague-Dawley rats, weighing 180–220 g, were obtained from Beijing Vital River Experimental Animal Co., Ltd. The animals were quarantined for 1 week prior to study and maintained on a 12-h light/12-h dark cycle at 22 ± 1°C and at 50–55% relative humidity with free access to solid pellet diet and water ad libitum throughout the study. All rats were assigned randomly to three groups, including acute liver injury (ALI) rat, SC-treated ALI rat and the control, 5 in each group. The ALI and SC-treated ALI rats were intraperitoneal injected two doses of the mixture of CCl4 and olive oil (1:1, V/V) at 2 mL/kg in a 24 h time interval (Huang et al., [2001]), while the control group was given the same volume of olive oil. Then, the SC-treated ALI rat was orally dosed with SC alcoholic extract suspended in 0.5% sodium carboxymethyl cellulose (CMC) at 1.5 g/kg/day for 4 days after CCl4 injection. The dosages were set according to the amounts of the four active lignans used previously for pharmacological studies and their contents in the extract (Chiu et al., [2002], [2007]; Cheng et al., [2013]). All animal protocols were approved by the Animal Care and Welfare Committee of the Academy of Military Medical Sciences. All animal procedures complied with the Guide for the Care and Use of Laboratory Animals issued by Beijing Association on Laboratory Animal Care (BALAC).
Serum aspartate transaminase (AST), alanine transaminase (ALT), alkaline phosphatase (ALP), lactate dehydrogenase (LDH), total bilirubin, blood urea nitrogen (BUN), and creatinine (CRE) levels were determined with commercial kits (Nanjing Jiancheng Bioengineering Institute, China).

The nature of data set [2]: Transport across Caco-2 cell monolayer. The class given is in vitro ADME. As to conditions: human, 5 μM. On the procedure:
(§1) Caco-2 cell (passage 38) was used in the transport experiments. Cells were seeded on polycarbonate filters (12 mm diameter, pore size […]) at 1 × 10^5/cm^2. The cell monolayer was formed 21 days post seeding when the transepithelial electrical resistance (TEER) was above 1,000 Ω• cm^2. Three concentration levels (5, 10, and 50 μM) were set for the four schisandra lignans in the study. After preincubation for 1 h at 37°C, the solution of the four lignans was respectively added to the apical (0.4 mL) or basolateral (0.6 mL) chamber for absorptive (AP → BL) and secretive (BL → AP) permeability test. At the specified timepoints (0.5, 1, 1.5 and 2 h), 50 μL samples (n = 3) were withdrawn from receiver chamber, and meanwhile, 50 μL fresh buffer was added. The four lignans were determined by HPLC-MS method.
(§2) The efflux rate (ER) was calculated by the formula ER = Papp (BL → AP)/Papp(AP → BL).
On the technique in general: Passage across Caco-2 layers is used to estimate intestinal permeability.

Data set [3] in a line: Pharmacokinetics of four lignans in rats after oral SC alcoholic extract. The class given is in vivo, rat. As to the method: The pharmacokinetic profiles of four lignans were studied in ALI rat after multiple oral administrations of SC alcoholic extract at dose of 1.5 g/kg/day. After the ALI rat was established, SC alcoholic extract suspended in 0.5% sodium carboxymethyl cellulose was given to ALI rats and the control via oral gavage once a day for 4 consecutive days. Before the last dosing, rats were fasted for 12 h while water was taken freely. Blood samples were collected at 0, 0.25, 0.5, 1, 2, 3, 4, 6, 8, 12, 24, 36, and 48 h after the last dosing. A cannula was surgically placed into the jugular vein for collection of blood samples (about 0.1 mL) and blood loss compensation using sterile isotonic saline in the pharmacokinetic study. Plasma was separated by centrifugation and stored at −20°C until analysis. Plasma concentrations of the four lignans were quantified using HPLC-MS analysis developed according to the reported method (Wang et al., [2008]).
Data fitting and pharmacokinetic parameter calculations were carried out using the Winnolin software. Non-compartmental analysis was used to calculate the pharmacokinetic parameters. Parameters, such as AUC and MRT, were calculated using statistical moment method.

The subject of data set [4] is rat intestine (jejunum segment). In words: In situ intestinal perfusion of four lignans. The class given is in vivo. To be noted: for Perfusate (Percent of the initial dose) / Plasma (Percent of the initial dose) / Intestine (Percent of the initial dose) / Pblood / Plumen: 50 μM, n = 3; for Perfusate (Percent of the initial dose): intestinal perfusion 60 min; for Plasma (Percent of the initial dose) / Intestine (Percent of the initial dose): intestinal perfusion; for Plasma (Percent of the initial dose): mesenteric vein blood. As to the method:
The surgical procedures of intestinal perfusion were conducted according to those published reports (Savina et al., [1981]). Hank's balanced salt solution (HBSS, pH 7.4) with four schisandra lignans (50 μM) at 37°C was infused into the jejunum segment at rate of 0.3 mL/min. Phenol Red (50 μM) was added to serve as a nonabsorbable marker for measuring water flux. Blood samples from mesenteric vein and perfusate were collected at 5-min interval. The plasma separated by centrifugation and perfusate was stored at −20°C until HPLC-MS analysis.
The permeability of four lignans across the rat intestine was calculated based on the disappearance of parent drug from the lumen (Plumen) as well as the appearance of the drug in blood (Pblood) using the following equations (Singhal et al., [1998]):
(1) Plumen = −Q/2πrlLnCout/Cin
(1) Pblood = ΔMB/Δt/2πrl{C}
where r is the radius of the perfused intestinal lumen; l is the length of the segment; Q is the flow rate of perfusate; Cin is the concentration of drug at the start of perfusion; and Cout is the steady-state concentration of drug exiting the lumen. ΔMB/Δt is the rate of drug appearance in mesenteric blood; and {C} is the logarithmic mean concentration of drug in the lumen.

The subject of a further data set is Caco-2 cell monolayer. In words: Transport across Caco-2 cell monolayer. It is filed as in vitro ADME. As to conditions: for ER: ER = Papp (BL → AP)/Papp(AP → BL). As to the method:
as §1, §2

A further data set has as its system rat liver. Briefly: In situ hepatic perfusion of four lignans. The class given is in vivo. To be noted: 10 μM, n = 3; for Total amount of analyte in bile / Total amount of analyte in liver: hepatic perfusion 60 min; for AUC: perfusate AUC(0−1h). On the procedure: In situ liver perfusion was performed similarly as the method described previously (Uraki et al., [2016]). […] The perfusate consisted of Krebs–Hensleit buffer (pH 7.4) containing sodium taurocholate (4.75 mg/L), 1% bovine serum albumin, and glucose (1.2 g/L) was oxygenated using carbogen, 95% O2/5% CO2. The perfusate at 37°C was infused into the portal vein at a flow rate of 30 mL/min in a recirculatory manner. After 10-min equilibration, four schisandra lignans were added to the reservoir (final concentration of 10 μM). Perfusate (0.5 mL) and bile samples were collected at 0, 10, 20, 30, 40, 50, and 60 min after the addition of lignans. The same volume of blank perfusion buffer was immediately added to the reservoir after collection of the perfusate samples. After hepatic perfusion, rat was sacrificed and liver was removed, blotted dry, and weighed.

[5] abbreviates: ALI rat intoxicated with CCl4 vs control rats.
The mark [6] stands for this setting: CCl4-intoxicated rats vs control.
Where [7] appears, read: Caco-2, with PSC833 (concentration not stated), + PSC833.
Where [8] appears, read: Caco-2, ER = Papp (BL → AP)/Papp(AP → BL).
[9] abbreviates: CCl4-intoxicated rats, oral SC alcoholic extract 1.5 g/kg/day for 4 days, plasma, n = 5.
The mark [10] stands for this setting: Control (normal) rats, oral SC alcoholic extract 1.5 g/kg/day for 4 days, plasma, n = 5.

Like-named read-outs stand apart in the source and are kept apart here.

Regarding `ClC(Cl)(Cl)Cl` [CCl4, carbon tetrachloride], in data set [1] (setting [5]), the “Decrease of content of liver microsomal CYP450 enzyme” value amounted to 54%, the “Increase of BUN” value was determined as 30%, the “Increase of liver index” value is 40% and the “Increase of serum ALT” value stood at 720%. Besides, in data set [1] (setting [5]), the “Increase of serum AST” value came out at 30%. In addition, in data set [1] (CCl4-intoxicated rats), the BUN came out at 18.3 ± 1.2 mg/dL and the CRE is reported as 0.8 ± 0.1 mg/dL. For the same compound, in data set [1] (setting [6]), the “Serum ALT increase” value is 8.2 folds and the “Serum AST increase” value is on record as 1.3 folds. Further, in data set [1] (CCl4-intoxicated rats, CCl4:olive oil (1:1) 2 mL/kg i.p., two doses), the Liver index came out at 38 ± 5 g/kg. Moreover, in data set [1] (CCl4-intoxicated rats, liver microsomal CYP450 content), the “Liver P450” value amounted to 0.27 ± 0.12 nmol/mg. In data set [1] (CCl4-intoxicated rats, serum), this compound gave an ALP of 8.15 ± 0.09 IU/L, an ALT of 329 ± 49 IU/L, an AST of 268 ± 49 IU/L and an LDH of 605 ± 168 IU/L. In data set [1] (CCl4-intoxicated rats, total bilirubin), this compound registered a TB of 0.09 ± 0.02 mg/dL.
What is called Papp A→B is how fast a substance crosses the layer from the apical side. Usually Papp B→A stands for how fast a substance crosses the layer from the basolateral side. As for `C[C@H]1O[C@@H](O[C@H]2[C@@H](O)C[C@H](O[C@H]3[C@@H](O)C[C@H](O[C@H]4CC[C@@]5(C)[C@H](CC[C@@H]6[C@@H]5C[C@@H](O)[C@]5(C)[C@@H](C7=CC(=O)OC7)CC[C@]65O)C4)O[C@@H]3C)O[C@@H]2C)C[C@H](O)[C@@H]1O` [Digoxin, digoxin, reference compound], the Papp A→B at 2 h, 5 μM in data set [2] (setting [7]) worked out at 1.46 ± 0.24 ×10⁻⁶ cm/s; in data set [2] (Caco-2), 3.29 ± 4.02 ×10⁻⁶ cm/s. In addition, the basolateral-to-apical permeability (Papp B→A) at 2 h, 5 μM was found to be 2.38 ± 0.58 ×10⁻⁶ cm/s in data set [2] (setting [7]) and 11.6 ± 0.82 ×10⁻⁶ cm/s in data set [2] (Caco-2). Further, the efflux ratio at 2 h, 5 μM in data set [2] (Caco-2, with PSC833 (concentration not stated), + PSC833, read-out: ER) turned out to be 1.63; in data set [2] (setting [8]), 3.53.
In data set [2] (Caco-2), `CC(C)NCC(O)COc1cccc2ccccc12` (stereo not drawn) [Propranolol, propranolol, reference compound] showed a Papp A→B at 2 h, 5 μM of 32.9 ± 6.03 ×10⁻⁶ cm/s and a Papp B→A at 2 h, 5 μM of 24.6 ± 1.8 ×10⁻⁶ cm/s. Moreover, the efflux ratio at 2 h, 5 μM in data set [2] (setting [8]) stood at 0.75.
One may read the Cmax as the highest concentration seen after dosing. As a reminder, the Tmax is the time from dosing to the highest level. By AUC is commonly meant concentration integrated over time. A higher AUC goes with more exposure. Turning to schisantherin A, in data set [3] (setting [9]), the AUC(0−t) was 99600 ± 45600 ng·h/mL, the CLz/F is on record as 234.05 ± 115.74 L/h/kg, the Cmax was 3190 ± 1160 ng/mL and the “MRT(0−t)” value is on record as 19.84 ± 1.18 h. Moreover, in data set [3] (setting [9]), the Tmax is on record as 9.60 ± 3.29 h and the t1/2 came to 17.65 ± 3.32 h. In data set [3] (CCl4 intoxicated rats vs control rats), the “Reduction of systemic clearance (CLz/F)” value is roughly 89%. For the same compound, in data set [3] (setting [10]), the AUC(0−t) is 11300 ± 3870 ng·h/mL, the highest level (Cmax) was 569 ± 163 ng/mL, the “MRT(0−t)” value is listed as 15.42 ± 0.29 h and the Tmax worked out at 5.00 ± 1.41 h. In data set [3] (setting [10]), this compound came in with a t1/2 of 12.39 ± 2.12 h. In addition, in data set [4] (CCl4-intoxicated rats), the “Perfusate (Percent of the initial dose)” value was 92.85 ± 1.33% of the initial dose, the “Plasma (Percent of the initial dose)” value was 0.82 ± 0.04% of the initial dose, the “Intestine (Percent of the initial dose)” value was 1.95 ± 0.36% of the initial dose and the Pblood was 0.060 ± 0.016 × 10^−4 cm/s. Also, in data set [4] (CCl4-intoxicated rats), the Plumen is listed as 2.047 ± 0.373 × 10^−4 cm/s. In data set [4] (Control rats), the “Perfusate (Percent of the initial dose)” value was 92.47 ± 1.06% of the initial dose, the “Plasma (Percent of the initial dose)” value was 0.80 ± 0.07% of the initial dose, the “Intestine (Percent of the initial dose)” value is reported as 1.65 ± 0.37% of the initial dose and the Pblood is 0.047 ± 0.006 × 10^−4 cm/s. For the same compound, the Plumen in data set [4] (Control rats) is on record as 2.303 ± 0.163 × 10^−4 cm/s. Further, the “Increase of remaining amount in perfusate” value in data set [4] (intestinal autoperfusion (60 min), CCl4-treated rats vs control) was “not changed”. For the same compound, in the data set with Caco-2 cell monolayer (5 μM), the “Papp(AP−BL)” value is 1.33 ± 0.12 × 10^−6 cm/s, the “Papp(BL−AP)” value was 1.52 ± 0.26 × 10^−6 cm/s and the ER was found to be 1.14. In addition, in the data set with Caco-2 cell monolayer (10 μM), the “Papp(AP−BL)” value was 1.81 ± 0.35 × 10^−6 cm/s, the “Papp(BL−AP)” value is given as 2.28 ± 0.47 × 10^−6 cm/s and the ER turned out to be 1.26. In addition, in the data set on Caco-2 cell monolayer (50 μM), the “Papp(AP−BL)” value is 1.43 ± 0.35 × 10^−6 cm/s, the “Papp(BL−AP)” value is on record as 1.28 ± 0.24 × 10^−6 cm/s and the ER is recorded as 0.89. In the data set on rat liver (CCl4-intoxicated rats), the “Total amount of analyte in bile” value turned out to be 1.61 ± 0.34 µg, the “Total amount of analyte in liver” value was found to be 17.15 ± 1.84 µg and the AUC came out at 4790 ± 30 ng·h/mL. Further, in the data set on rat liver (Control rats), the “Total amount of analyte in bile” value was determined as 1.48 ± 0.23 µg, the “Total amount of analyte in liver” value was determined as 12.36 ± 1.65 µg and the AUC was found to be 4080 ± 140 ng·h/mL.

Source of the values: article PMC5861220, “The Cytochrome P450-Mediated Metabolism Alternation of Four Effective Lignans From Schisandra chinensis in Carbon Tetrachloride-Intoxicated Rats and Patients With Advanced Hepatocellular Carcinoma” (Frontiers in Pharmacology, 2018).
